Patent publication US5770590A, “Cyclic compounds, their prudiction and use” (Takeda Chemical Industries, Ltd., priority 1995, dated 1998)
pIC50: −log10 of the molar value.

Experiments:
[1] = test system: plasma extravasation induced by capsaicin in trachea; assay: Inhibitory effect on plasma extravasation induced by capsaicin in trachea of guinea pigs; format: in vivo, guinea pigs (Hartley type white male); conditions: Table 3, Dunnett's test *p < 0.05, **p < 0.01, ***p < 0.001
Procedure: [Inhibitory effect on plasma extravasation induced by capsaicin in trachea of guinea pigs] Guinea pigs (Hartley type white male guinea pige), (n=6) were anesthetized with 35 mg/kg of pentobarbital injected intraperitoneally (i.p.), then test compounds were administered intravenously (i.v.). After 5 minutes, a mixed solution of capsaicin (150 μg/kg) and Evans' blue dye (20 mg/kg) was administered intravenously to cause reaction. Ten minutes later, test animals were sacrificed by cutting the aorta, then perfused through pulmonary artery with 50 ml of physiological saline. The trachea was excised, and its wet weight was measure. The trachea was incubated at room temperature in 1 ml of acetone-0.3% sodium sulfate (7:3) overnight and Evans' blue dye was extracted from the trachea. The extract solution was centrifuged at 2800 rpm for 5 minutes. The amount of Evans' blue dye in the supernatant was quantified by measuring absorbance at […]. Plasma extravasation was expressed in terms of the amount of Evans' blue dye (μg) relative to the weight of the trachea (g). The efficacy of the drug was evaluated by calculating the % inhibition in accordance with the following formula, or expressed in terms of [formula] A: the amount of Evan's blue dye (μg/g) in each test animal B: The mean amount of Evan's blue dye (μg/g) of the group untreated with capsaicin.

[2] = target: T1, substance P receptor (receptor from human lymphoblast cells (IM-9)) (Homo sapiens, UniProt P25103); assay: Radioligand receptor binding inhibitory activity using receptor from human lymphoblast cells (IM-9), 125I-BHSP; conditions: Table 1, IM-9 receptor, 25° C., 30 minutes
T1 construct: The receptor was prepared from human lymphoblast cells (IM-9); endogenous in cells; host or cells: IM-9 human lymphoblast cells (crude membranes)
Procedure: The receptor was prepared from human lymphoblast cells (IM-9). IM-9 cells (2×10^5 cells/ml) were inoculated and incubated for 3 days (one liter), which was then subjected to centrifuge for 5 minutes at 500×g to obtain cell pellets.
After washing three times with 250 ul of 50 mM of Tris-HCl buffer (pH 7.4) containing 0.02% bovine serum albumin, the radioactivity remaining on the filter was determined with a gamma counter. Before use, the filter was immersed in 0.1% polyethyleneimine for 24 hours and air-dried.

T1 sequence (P25103 whole entry): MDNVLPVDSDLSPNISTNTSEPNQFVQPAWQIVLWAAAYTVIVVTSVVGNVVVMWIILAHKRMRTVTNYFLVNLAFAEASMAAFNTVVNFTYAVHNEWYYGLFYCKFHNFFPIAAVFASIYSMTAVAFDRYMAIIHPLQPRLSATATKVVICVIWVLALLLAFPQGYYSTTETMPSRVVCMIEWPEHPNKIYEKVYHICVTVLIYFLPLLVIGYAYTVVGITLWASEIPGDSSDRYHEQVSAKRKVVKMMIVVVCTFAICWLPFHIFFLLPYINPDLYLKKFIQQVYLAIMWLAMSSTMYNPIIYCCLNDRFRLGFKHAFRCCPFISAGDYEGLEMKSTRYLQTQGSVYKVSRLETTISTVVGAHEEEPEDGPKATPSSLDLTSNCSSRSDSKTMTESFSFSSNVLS

Structure (SMILES) | Inhibition of plasma extravasation ([1]; dose 10 μg/kg i.v.) [%] | Inhibition of plasma extravasation ([1]; dose 100 μg/kg i.v.) [%] | also measured
CC1CCn2c(c(-c3ccccc3)c3cccnc3c2=O)C(=O)N(Cc2cc(C(F)(F)F)cc(C(F)(F)F)c2)C1 (racemic) [Example 15, (+/-)-7-[3,5-Bis(trifluoromethyl)benzyl]-6,7,8,9,10,11-hexahydro-9-methyl-6,13-dioxo-5-phenyl-13H-[1,4]diazocino[2,1-g][1,7]naphthyridine] | 68.4 |  | 
Cc1ccc(-c2c3n(c(=O)c4ncccc24)CCC(C)CN(Cc2cc(C(F)(F)F)cc(C(F)(F)F)c2)C3=O)cc1 (racemic) [Example 16, (+/-)-7-[3,5-Bis(trifluoromethyl)benzyl]-6,7,8,9,10,11-hexahydro-9-methyl-5-(4-methylphenyl)-6,13-dioxo-13H-[1,4]diazocino[2,1-g][1,7]naphthyridine] | 60.5 |  | 
Cc1ccc(-c2c3n(c(=O)c4ncccc24)C[C@@H](C)CN(Cc2cc(C(F)(F)F)cc(C(F)(F)F)c2)C3=O)cc1 [Example 14, (9S)-7-[3,5-Bis(trifluoromethyl)benzyl]-6,7,8,9,10,12-hexahydro-9-methyl-5-(4-methylphenyl)-6,12-dioxo[1,4]diazepino[2,1-g][1,7]naphthyridine] |  |  | pIC50 [2]: 9.55
O=C1c2c(-c3ccccc3)ccnc2OCCCN1Cc1cc(C(F)(F)F)cc(C(F)(F)F)c1 [Example 22, 5-[3,5-Bis(trifluoromethyl)benzyl]-2,3,4,5-tetrahydro-6-oxo-7-phenyl-6H-pyrido[2,3-b][1,5]oxazocine] |  | 41.2 | 
Cc1cnc2c(c1-c1ccccc1)C(=O)N(Cc1cc(C(F)(F)F)cc(C(F)(F)F)c1)CCO2 [Example 23, 4-[3,5-Bis(trifluoromethyl)benzyl]-2,3,4,5-tetrahydro-7-methyl-5-oxo-6-phenylpyrido[3,2-f][1,4]oxazepine] |  | 64.0 | 
Cc1cnc2c(c1-c1ccccc1)C(=O)N(Cc1cc(C(F)(F)F)cc(C(F)(F)F)c1)CCCO2 [Example 24, 5-[3,5-Bis(trifluoromethyl)benzyl]-2,3,4,5-tetrahydro-8-methyl-6-oxo-7-phenyl-6H-pyrido[2,3-b][1,5]oxazocine] |  | 53.1 | 
